Source: US20090246773A1, “DIAGNOSTIC COMPOSITIONS AND TREATMENT METHODS FOR CONDITIONS INVOLVING TROPHOBLAST CELL DEATH, DIFFERENTIATION, INVASION AND/OR CELL FUSION AND TURNOVER” (Mount Sinai Hospital, priority 2006, published 2009)
Values belong to the molecule of their own block, whether it stands above or below them. Residues, ends and D or L forms follow the SMILES beside them. *: point of attachment. Cbz = O=C(OCc1ccccc1)*; CH2F = FC*

Columns and labels:
[1] = test system: Mcl-1 Cleavage in Human Villous Explants; experiment: Mcl-1 immunoblot of villous explants exposed to hypoxia-reoxygenation with caspase inhibitors; format: cell-based; details: for Mcl-1S amount: 100 μM inhibitor, relative to H/R and untreated tissues; for Mcl-1L cleavage induced by hypoxia-reoxygenation: human villous explants, summary statement
Procedure: Explant cultures were performed as previously described (Caniggia, 2000). Briefly, placental tissues (5-8 weeks of gestation, 15 sets) were placed in ice-cold PBS and processed within 2 hours of collection. Tissues were aseptically dissected to remove decidual tissue and fetal membranes. Small fragments of placental villi (25-45 mg wet weight) were teased apart, placed on Millicell-CM culture dish inserts (Millipore Corp., Bedford, Mass., USA) pre-coated with 0.15 mL of undiluted Matrigel (Collaborative Biomedical Products, Bedford, Mass., USA), and transferred to a 24-well culture dish. Explants were cultured in serum-free DMEM/F12 (Gibco BRL, Grand Island, N.Y., USA) supplemented with 100 μg/mL streptomycin, 100 U/mL penicillin, and incubated overnight at 37° C. in 5% CO2 in air to allow attachment. Explants were maintained in standard condition (5% CO2 in 95% air) or in an atmosphere of 3% O2/92% N2/5% CO2 for 48 hrs at 37° C. Explants from more than 10 different placentae in more than 15 separate experiments were used. A minimum of 3 explants per experimental condition was used at all times. Explants were exposed to hypoxia-reoxygenation (H/R) as previously described (Hung, 2002; Soleymanlou, 2005) in presence of 100 μM of the pan-caspase inhibitor z-VAD-fmk (BioMol, Plymouth Meeting, Pa.) or caspase-3-specific inhibitor z-DEVD-fmk (R&D Systems, Minneapolis, Minn.) both dissolved in DMSO (equivalent volume of DMSO in absence of inhibitors was used in control conditions).
Western blotting was performed as previously described (MacPhee, 2001). Fifty μg of total protein form placental tissue or cell line was subjected to 12% (wt/vol) SDS-PAGE. Membranes were probed at 4° C. overnight with a 1:1000 dilutions of primary antibodies:rabbit polyclonal Mtd antibody capable of recognizing all isoforms as previously reported (Soleymanlou, 2005); Mcl-1-specific rabbit polyclonal antibody (SC-819 clone S-19 from Santa Cruz Biotechnology, Santa Cruz, Calif.); specific cleaved caspase-3 (Asp175) (5Al) and cleaved caspase-8 (Asp374) rabbit polyclonal antibodies (Cell Signaling, Beverly, Mass.). For anti-Mtd and Mcl-1 antibodies, pre-immune serum and competing peptides were used as controls. A rabbit polyclonal antibody was generated against N-terminal amino acids (28-41) of syncytin (NM_014590) and pre-immune serum was used as control. After overnight incubation, membranes were washed with TBS/T and incubated for 60 minutes at room temperature with 1:5000 diluted horseradish peroxidase-conjugated anti-rabbit (Santa Cruz Biotechnology). Blots were exposed to chemiluminescent ECL-plus reagent (Amersham, Piscataway, N.J.). All blots were confirmed for equal protein loading at all time using ponceau staining.

[2] = test system: sFlt-1 expression in first trimester placental explants; experiment: sFlt-1 mRNA by qRT-PCR in first trimester villous explants (HIF-1 stabilization / knockdown); format: cell-based, human; details: 1.0 mM DMOG, explants at 20% O2; relative level normalized to 18S; 20% O2 alone 1.0±0.03; P<0.05
Procedure: (§1) Chorionic villous explant culture was performed as previously described (Caniggia, 2000). Briefly, placental tissues (5-8 weeks of gestation, 15 separate sets) were placed in ice-cold PBS and processed within 2 hours of collection. Tissues were aseptically dissected to remove decidual tissue and fetal membranes. Small fragments of placental villi (25-45 mg wet weight) were teased apart, placed on Millicell-CM culture dish inserts (Millipore Corp., Bedford, Mass., USA) pre-coated with 0.15 mL of undiluted Matrigel (Collaborative Biomedical Products, Bedford, Mass., USA), and transferred to a 24-well culture dish. Explants were cultured in serum-free DMEM/F12 (Gibco BRL, Grand Island, N.Y., USA) supplemented with 100 μg/mL streptomycin, 100 U/mL penicillin, and incubated overnight at 37° C. in 5% CO2 in air to allow attachment. Explants were maintained in standard condition (5% CO2 in 95% air) or in an atmosphere of 3% or 8% O2 (92% or 87% N2 and 5% CO2, respectively) for 72 hrs at 37° C. The morphological integrity and viability of villous explants and their EVT outgrowth and migration were monitored daily for up to 5 days as previously reported (Caniggia, 2000). […]
Total RNA was isolated from placental samples using a Trizol-based approach according to the manufacturer's protocol (Invitrogen, CA). […] Relative quantitation of data was performed using logarithmic curves. […]

[3] = test system: sFlt-1 expression in first trimester placental explants; experiment: sFlt-1 protein immunohistochemistry in villous explants; format: cell-based, human; details: DMOG added to 20% O2 explants vs. 20% O2 without DMOG; IHC
Procedure: as §1, with “Explants were maintained in standard condition (5% CO2 in 95% air) or in an atmosphere of 3% or 8% O2 (92% or 87% N2 and 5% CO2, respectively) for 72 hrs at 37° C.” left out
Paraffin sections were mounted on glass slides, dewaxed in xylene and rehydrated in descending ethanol gradient. […] Finally, avidin biotin complex (Vector Laboratories, Burlingame, Calif.) was applied for 1 hour and staining was detected with the diamino-benzidine chromogen after 5 minutes. […]

villous explants [4] = experiment: EVT outgrowth of villous explants; format: cell-based, human; details: DMOG-treated explants vs. control explants at 20% O2
Procedure: Chorionic villous explant culture was performed as previously described (Caniggia, 2000). Briefly, placental tissues (5-8 weeks of gestation, 15 separate sets) were placed in ice-cold PBS and processed within 2 hours of collection. Tissues were aseptically dissected to remove decidual tissue and fetal membranes. Small fragments of placental villi (25-45 mg wet weight) were teased apart, placed on Millicell-CM culture dish inserts (Millipore Corp., Bedford, Mass., USA) pre-coated with 0.15 mL of undiluted Matrigel (Collaborative Biomedical Products, Bedford, Mass., USA), and transferred to a 24-well culture dish. Explants were cultured in serum-free DMEM/F12 (Gibco BRL, Grand Island, N.Y., USA) supplemented with 100 μg/mL streptomycin, 100 U/mL penicillin, and incubated overnight at 37° C. in 5% CO2 in air to allow attachment. Explants were maintained in standard condition (5% CO2 in 95% air) or in an atmosphere of 3% or 8% O2 (92% or 87% N2 and 5% CO2, respectively) for 72 hrs at 37° C. The morphological integrity and viability of villous explants and their EVT outgrowth and migration were monitored daily for up to 5 days as previously reported (Caniggia, 2000). Explants from more than 10 different placentae in more than 15 separate experiments were used. […]

villous explants [5] = experiment: TUNEL assay of villous explants; format: cell-based, human; details: DMOG treatment or 3% O2 exposure of explants
Procedure: An in situ cell death detection kit was purchased from Amersham Biosciences, NJ, USA. Terminal deoxynucleotidyl transferase-dUTP-nick end labelling (TUNEL) assays were performed according to instructions provided by the manufacturer. Paraffin sections of tissue were dewaxed in xylene, rehydrated in descending grades of ethanol, and finally soaked in PBS. Tissue sections were pre-treated with Proteinase K (10 μg/mL) in PBS for 10 min, washed and then incubated in 3% hydrogen peroxide in methanol for 45 minutes. After washing in PBS, the slides were preincubated with 1× One Phor All buffer in 0.1% Triton X-100 in water for 30 minutes and then incubated in TdT solution for 1.5 hour at 37° C. Samples were washed in PBS and avidin biotin complex (Vector Laboratories, Burlingame, Calif.) was applied for 1 hour. Staining was detected with the diamino-benzidine chromogen after 10 minutes. Slides were counterstained with haematoxylin, dehydrated in ascending concentrations of ethanol, and fixed with xylene.

villous explants [6] = experiment: TGFβ treatment of first trimester villous explants: phospho-Smad2/3 and sFlt-1 (Western blot, real-time PCR); format: cell-based, human; details: 5 ng/mL, 24 hours
Procedure: (§2) Early onset (25-33 wks) severe IUGR with abnormal umbilical and uterine artery Doppler and from age-matched normal control tissues were collected. First trimester villous explants and BeWo and JEG-3 choriocarcinoma cell lines were cultured in standard conditions in the presence or absence of TGFβ1 or TGFβ 3 (5 ng/mL) for 24 hours. Message levels of sFlt-1 were measured by quantitative real-time PCR using specific TaqMan primers and probe. Protein expression of sFlt-1 was measured by Western blot using a polyclonal antibody against sFlt-1. In addition, protein lysates from placental tissues, explants and cells lines were analyzed with antibodies that recognize human Smad2, Smad3, Smad7 and phospho-Smad2/3.

BeWo cells = experiment: TGFβ treatment of BeWo cells: phospho-Smad2/3 and sFlt-1 (Western blot, real-time PCR); format: cell-based, human; details: 5 ng/mL, 24 hours
Procedure: as §2

villous explants [7] = experiment: TGFβ treatment of villous explants: endoglin expression; format: cell-based, human; details: villous explants (5-8 wks) vs. non-treated explants
Procedure: Human placental tissue from first trimester and from discordant dichorionic and monochorionic twins (n=10) and age matched normal twins (n=5) were used as physiological and pathological models of placental hypoxia. In all twins the discordancy was above 25% and absence of end diastolic velocity was documented in the growth-restricted twin. Endoglin mRNA expression was measured by quantitative PCR analysis. Protein expression was measured by Western Blot analysis using endoglin antibodies. Villous explants (5-8 wks) were used to test the effect of both oxygen and TGFβ1 and TGFβ3 on endoglin expression.

[8] = explants under H/R, 100 μM inhibitor in DMSO, immunoblot

Mcl-1L content [1, 8]: restored
p29 Mcl-1 (Mcl-1c) band / formation from Mcl-1L [1, 8]: abrogated
Mcl-1S amount ([1]; explants under H/R): increased
Mcl-1L cleavage induced by hypoxia-reoxygenation [1]: prevented
Molecule: COC(=O)C[C@H](NC(=O)[C@H](C)NC(=O)[C@@H](NC(=O)OCc1ccccc1)C(C)C)C(=O)CF [z-VAD-fmk] (Cbz-Val-Ala-Asp(OMe)-CH2F)

Molecule: COC(=O)CNC(=O)C(=O)OC [DMOG, dimethyloxalyl-glycin]
sFlt-1 mRNA expression [2]: 2.4±0.2
sFlt-1 protein expression in trophoblast layers including EVT [3]: increased
explant outgrowth (villous explants [4]): typical low oxygen-induced outgrowth
apoptosis (TUNEL) (villous explants [5]): not likely due to an increased incidence of apoptosis

Molecule: transforming growth factor β1 [TGFβ1]
phospho-Smad2 protein expression (villous explants [6]): increased
phospho-Smad3 protein expression (villous explants [6]): increased
sFlt-1 mRNA level (villous explants [6]): significant increase
sFlt-1 protein level (villous explants [6]): significant increase
phospho-Smad2 protein expression (BeWo cells): increased
phospho-Smad3 protein expression (BeWo cells): increased
sFlt-1 mRNA level (BeWo cells): significant increase
sFlt-1 protein level (BeWo cells): significant increase
expression of membrane endoglin (villous explants [7]): increased
expression of soluble endoglin (villous explants [7]): increased

p29 Mcl-1 (Mcl-1c) band / formation from Mcl-1L [1, 8]: prevented
Mcl-1S amount ([1]; explants under H/R): increased
Mcl-1L cleavage induced by hypoxia-reoxygenation [1]: prevented
Molecule: COC(=O)CC[C@H](NC(=O)[C@H](CC(=O)OC)NC(=O)OCc1ccccc1)C(=O)N[C@H](C(=O)N[C@@H](CC(=O)OC)C(=O)CF)C(C)C [z-DEVD-fmk]

B1: transforming growth factor β3 (protein, UniProt P10600 301-412, looked up)
Transforming growth factor …: ALDTNYCFRNLEENCCVRPLYIDFRQDLGWKWVHEPKGYYANFCSGPCPYLRSADTTHSTVLGLYNTLNPEASASPCCVPQDLEPLTILYYVGRTPKVEQLSNMVVKSCKCS
notes: transforming growth factor β3 added to explant and cell cultures
phospho-Smad2 protein expression (villous explants [6]): increased
phospho-Smad3 protein expression (villous explants [6]): increased
sFlt-1 mRNA level (villous explants [6]): significant increase
sFlt-1 protein level (villous explants [6]): significant increase
phospho-Smad2 protein expression (BeWo cells): increased
phospho-Smad3 protein expression (BeWo cells): increased
sFlt-1 mRNA level (BeWo cells): significant increase
sFlt-1 protein level (BeWo cells): significant increase
expression of membrane endoglin (villous explants [7]): increased
expression of soluble endoglin (villous explants [7]): increased
